# Reference: patent US7893203B2, “Protein involved in G protein-coupled receptor mediated signal transduction with ability to mediate signal transduction from a dopamine D1 receptor or an adenosine A2A receptor to an adenylate cyclase and utilization thereof” (Sumitomo Chemical Company, Ltd., priority 2002, dated 2011)
# Target: T1, adenosine A2a receptor (Homo sapiens, UniProt P29274)
# T1 construct: expressed in transfected cells; host or cells: CHO cells, transient lipofection
# Test: Screening of adenosine A2a receptor antagonist using change in cAMP level as index
# Assay type: cell-based
# Details: 10 μM test substance with 10 μM adenosine, CHO cells with A2a receptor and Gm1, cAMP level
# Procedure: Then, 10 μM of adenosine as a GPCR ligand and 10 μM of a test substance (DMPX) were added and incubated at 37° C. for 30 minutes.
# A substance which gave a cAMP level percentage of 85% or less upon contact of the cell with the ligand and the test substance was selected as a signal transduction inhibitor (antagonist), on the basis of the cAMP level with no contact being 0% and the cAMP level with the contact of the cell only with the ligand being 100% (FIG. 4).
# T1 sequence (P29274 whole entry): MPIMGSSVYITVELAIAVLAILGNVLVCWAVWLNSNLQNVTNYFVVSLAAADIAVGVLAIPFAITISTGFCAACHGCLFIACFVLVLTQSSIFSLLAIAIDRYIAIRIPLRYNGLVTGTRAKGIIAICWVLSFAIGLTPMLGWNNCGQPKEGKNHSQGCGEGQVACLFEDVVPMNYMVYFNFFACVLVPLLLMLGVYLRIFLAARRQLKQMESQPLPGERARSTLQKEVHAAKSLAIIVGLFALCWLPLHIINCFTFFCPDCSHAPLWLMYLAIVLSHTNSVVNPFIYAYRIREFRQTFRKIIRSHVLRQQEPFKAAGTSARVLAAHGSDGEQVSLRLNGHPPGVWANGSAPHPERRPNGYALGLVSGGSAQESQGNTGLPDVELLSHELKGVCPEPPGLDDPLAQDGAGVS
smiles,measurement,value
C#CCn1c(=O)c2c(ncn2C)n(C)c1=O [DMPX],adenosine A2a receptor antagonistic effects (FIG. 4),antagonistic effects
